Numbered stars: 1 amine (or outer) side, 2 acyl side, 3 side chain; on linkers, the order of the positions; unused ones are H or OH. Square brackets hold non-standard residues; d marks the D form. Peptide text beside a SMILES is read from it. * marks the point of attachment. Benzenesulfonyl(4-Cl,3-CF3) = O=S(=O)(c1ccc(Cl)c(C(F)(F)F)c1)*; Phe(4-CF3) = N[C@@H](Cc1ccc(C(F)(F)F)cc1)C(=O)O; Ala(4-Pyridazinyl) = N[C@@H](Cc1ccnnc1)C(=O)O; Ala(thiazol-2-yl) = N[C@@H](Cc1nccs1)C(=O)O; Ala(4-thiazolyl) = N[C@@H](Cc1cscn1)C(=O)O; Phe(3-I) = N[C@@H](Cc1cccc(I)c1)C(=O)O; Phe(4-I) = N[C@@H](Cc1ccc(I)cc1)C(=O)O; γGlu = O=C(O)[C@H](CCC(=O)[*:2])N[*:1]; Phe(2-I) = N[C@@H](Cc1ccccc1I)C(=O)O; hPhe = N[C@@H](CCc1ccccc1)C(=O)O; 2Pal = N[C@@H](Cc1ccccn1)C(=O)O; 3Pal = N[C@@H](Cc1cccnc1)C(=O)O; Phg = N[C@H](C(=O)O)c1ccccc1; Tle = CC(C)(C)[C@H](N)C(=O)O; β3hP = O=C(O)C[C@@H]1CCCN1
Experiments:
Matrilysin = target: T1, Matrilysin (Homo sapiens, UniProt P09237); experiment: Inhibition of recombinant human MMP7 using MOCAc-Pro-Leu-Gly-Leu-A2pr-(Dnp)-Ala-Arg-NH2 as substrate preincubated with compound for 15 mins followed by substrate addition and measured after 2 hrs by fluorescence based analysis
T1 sequence (P09237 whole entry): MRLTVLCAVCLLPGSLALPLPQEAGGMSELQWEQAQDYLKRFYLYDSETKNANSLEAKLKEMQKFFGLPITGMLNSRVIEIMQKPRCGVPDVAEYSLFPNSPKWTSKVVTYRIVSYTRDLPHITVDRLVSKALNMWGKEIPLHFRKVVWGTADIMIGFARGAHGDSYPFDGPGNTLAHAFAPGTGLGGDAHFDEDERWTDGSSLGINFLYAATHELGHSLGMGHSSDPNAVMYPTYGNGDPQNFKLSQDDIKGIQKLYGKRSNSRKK

[1] = target: Matrix metalloproteinase-14 (Homo sapiens, UniProt P50281); experiment: Inhibition of recombinant human MMP14 using MOCAc-Lys-Pro-Leu-Gly-Leu-A2pr(Dnp)-Ala-Arg-NH2 as substrate preincubated with compound for 15 mins followed by substrate addition and measured after 1 hrs by fluorescence based analysis

Row | SMILES | IC50 (Matrilysin) | IC50 [1]
1 | CC(C)(C)[C@H](NC(=O)[C@H](Cc1ccnnc1)NC(=O)CNC(=O)CC[C@H](NS(=O)(=O)c1ccc(Cl)c(C(F)(F)F)c1)C(=O)O)C(=O)N1CCC[C@H]1CC(N)=O ({Benzenesulfonyl(4-Cl,3-CF3)-γGlu}-G[Ala(4-Pyridazinyl)][Tle][β3hP]-NH2) | 0.0028 µM | 1.4 µM
2 | CC(C)(C)[C@H](NC(=O)[C@H](Cc1cccc(I)c1)NC(=O)CNC(=O)CC[C@H](NS(=O)(=O)c1ccc(Cl)c(C(F)(F)F)c1)C(=O)O)C(=O)N1CCC[C@H]1CC(N)=O ({Benzenesulfonyl(4-Cl,3-CF3)-γGlu}-G[Phe(3-I)][Tle][β3hP]-NH2) | 0.012 µM | 3.1 µM
3 | CC(C)(C)[C@H](NC(=O)[C@H](Cc1ccc(C(F)(F)F)cc1)NC(=O)CNC(=O)CC[C@H](NS(=O)(=O)c1ccc(Cl)c(C(F)(F)F)c1)C(=O)O)C(=O)N1CCC[C@H]1CC(N)=O ({Benzenesulfonyl(4-Cl,3-CF3)-γGlu}-G[Phe(4-CF3)][Tle][β3hP]-NH2) | 0.01 µM | 1.7 µM
4 | CC(C)(C)[C@H](NC(=O)[C@H](Cc1ccc(I)cc1)NC(=O)CNC(=O)CC[C@H](NS(=O)(=O)c1ccc(Cl)c(C(F)(F)F)c1)C(=O)O)C(=O)N1CCC[C@H]1CC(N)=O ({Benzenesulfonyl(4-Cl,3-CF3)-γGlu}-G[Phe(4-I)][Tle][β3hP]-NH2) | 0.0084 µM | 0.69 µM
5 | CC(C)(C)[C@H](NC(=O)[C@@H](NC(=O)CNC(=O)CC[C@H](NS(=O)(=O)c1ccc(Cl)c(C(F)(F)F)c1)C(=O)O)c1ccccc1)C(=O)N1CCC[C@H]1CC(N)=O ({Benzenesulfonyl(4-Cl,3-CF3)-γGlu}-G[Phg][Tle][β3hP]-NH2) | 0.38 µM | 5.1 µM
6 | CC(C)(C)[C@H](NC(=O)[C@H](CCc1ccccc1)NC(=O)CNC(=O)CC[C@H](NS(=O)(=O)c1ccc(Cl)c(C(F)(F)F)c1)C(=O)O)C(=O)N1CCC[C@H]1CC(N)=O ({Benzenesulfonyl(4-Cl,3-CF3)-γGlu}-G[hPhe][Tle][β3hP]-NH2) | 0.08 µM | 4.5 µM

Next, values leading:

Row | IC50 (Matrilysin) | IC50 [1] | SMILES
7 | 0.0019 µM | 3.5 µM | CC(C)(C)[C@H](NC(=O)[C@H](Cc1ccccn1)NC(=O)CNC(=O)CC[C@H](NS(=O)(=O)c1ccc(Cl)c(C(F)(F)F)c1)C(=O)O)C(=O)N1CCC[C@H]1CC(N)=O ({Benzenesulfonyl(4-Cl,3-CF3)-γGlu}-G[2Pal][Tle][β3hP]-NH2)
8 | 0.0017 µM | 2.7 µM | CC(C)(C)[C@H](NC(=O)[C@H](Cc1cccnc1)NC(=O)CNC(=O)CC[C@H](NS(=O)(=O)c1ccc(Cl)c(C(F)(F)F)c1)C(=O)O)C(=O)N1CCC[C@H]1CC(N)=O ({Benzenesulfonyl(4-Cl,3-CF3)-γGlu}-G[3Pal][Tle][β3hP]-NH2)
9 | 0.0038 µM | 0.93 µM | CC(C)(C)[C@H](NC(=O)[C@H](Cc1cscn1)NC(=O)CNC(=O)CC[C@H](NS(=O)(=O)c1ccc(Cl)c(C(F)(F)F)c1)C(=O)O)C(=O)N1CCC[C@H]1CC(N)=O ({Benzenesulfonyl(4-Cl,3-CF3)-γGlu}-G[Ala(4-thiazolyl)][Tle][β3hP]-NH2)
10 | 0.0096 µM | 3.8 µM | CC(C)(C)[C@H](NC(=O)[C@H](Cc1nccs1)NC(=O)CNC(=O)CC[C@H](NS(=O)(=O)c1ccc(Cl)c(C(F)(F)F)c1)C(=O)O)C(=O)N1CCC[C@H]1CC(N)=O ({Benzenesulfonyl(4-Cl,3-CF3)-γGlu}-G[Ala(thiazol-2-yl)][Tle][β3hP]-NH2)
11 | 0.0088 µM | 3.4 µM | CC(C)(C)[C@H](NC(=O)[C@H](Cc1ccccc1I)NC(=O)CNC(=O)CC[C@H](NS(=O)(=O)c1ccc(Cl)c(C(F)(F)F)c1)C(=O)O)C(=O)N1CCC[C@H]1CC(N)=O ({Benzenesulfonyl(4-Cl,3-CF3)-γGlu}-G[Phe(2-I)][Tle][β3hP]-NH2)
